Results taken from US20260256792A1, “TREATMENT OF CHRONIC SPONTANEOUS URTICARIA BY ADMINISTERING (R)-2-[3-[4-AMINO-3-(2-FLUORO-4-PHENOXY-PHENYL)PYRAZOLO[3,4-D]PYRIMIDIN-1-YL]PIPERIDINE-1-CARBONYL]-4-METHYL-4-[4-(OXETAN-3-YL)PIPERAZIN-1-YL]PENT-2-ENENITRILE” (priority 2023, published 2026).

System: moderate-to-severe chronic spontaneous urticaria (CSU)
Test: Phase 2 CSU study: itch severity score over 7 days (ISS7)
Type: in vivo, human
Conditions: for ISS7 Post-baseline Mean (SD) / ISS7 % Change difference for rilzabrutinib vs. placebo LS Mean (95% CI) / ISS7 % Change from baseline LS Mean (SE) / ISS7 Change difference for rilzabrutinib vs. placebo LS Mean (95% CI) / ISS7 Change from baseline LS Mean (SE): ITT; for Imputed non-responder n (%) (ISS7 reduction of 5 points or more) / Non-responder n (%) (ISS7 reduction of 5 points or more) / OR for rilzabrutinib vs. placebo (ISS7 reduction of 5 points or more) / RRD (%) for rilzabrutinib vs. placebo (ISS7 reduction of 5 points or more) / Responder n (%) (ISS7 reduction of 5 points or more): Omalizumab-Naïve Population, 400 mg BID
Description: The study comprises a 12 week, randomized, double-blind, placebo-controlled, multi-center, dose-ranging efficacy and safety phase, followed by a 40 week open label extension (OLE) phase (see FIG. 1). The study consists of three phases and an optional OLE phase. […] Clinically, CSU is characterized by the spontaneous and recurrent appearance of pruritic hives. The proposed primary endpoints were the UAS7 at Week 12 in EU and EU reference countries and the ISS7 in the US. Regardless of where a participant was from, all assessments were the same. The UAS7 score is a composite score containing both the HSS7 and the ISS7. This allowed a global assessment of the two key components of urticaria: hives and itch. […] The UAS is a validated PRO measure. […] The daily UAS scores range from 0 to 6 point/day. […] Patients were to complete the UAS using the e-diary. […] The following secondary endpoints were to be analyzed using the same approach as for the primary endpoint: • Change from baseline in UAS7 at Week 4 • Change from baseline in UAS7 at Week 12 (for US and US reference countries) • Change from baseline in ISS7 at Week 12 (except US and US reference countries) • Change from baseline in HSS7 at Week 12

## CC(C)(C=C(C#N)C(=O)N1CCC[C@@H](n2nc(-c3ccc(Oc4ccccc4)cc3F)c3c(N)ncnc32)C1)N1CCN(C2COC2)CC1 [rilzabrutinib, (R)-2-[3-[4-amino-3-(2-fluoro-4-phenoxy-phenyl)pyrazolo[3,4-d]pyrimidin-1-yl]piperidine-1-carbonyl]-4-methyl-4-[4-(oxetan-3-yl)piperazin-1-yl]pent-2-enenitrile]
400 mg QPM, Week 8
  ISS7 Post-baseline Mean (SD): 10.61 (5.22)
400 mg QPM, Week 9
  ISS7 % Change difference for rilzabrutinib vs. placebo LS Mean (95% CI): −7.07%
  ISS7 % Change from baseline LS Mean (SE): −37.93%
  ISS7 Change difference for rilzabrutinib vs. placebo LS Mean (95% CI): −0.74
  ISS7 Change from baseline LS Mean (SE): −6.24 (0.96)
  ISS7 Post-baseline Mean (SD): 10.45 (5.08)
400 mg QPM, Week 10
  ISS7 % Change difference for rilzabrutinib vs. placebo LS Mean (95% CI): −1.26%
  ISS7 % Change from baseline LS Mean (SE): −39.07 (6.29) %
  ISS7 Change difference for rilzabrutinib vs. placebo LS Mean (95% CI): −0.17
  ISS7 Change from baseline LS Mean (SE): −6.47 (1.02)
  ISS7 Post-baseline Mean (SD): 10.36 (5.24)
400 mg QPM, Week 11
  ISS7 % Change difference for rilzabrutinib vs. placebo LS Mean (95% CI): −3.30%
  ISS7 % Change from baseline LS Mean (SE): −36.92 (6.23) %
  ISS7 Change difference for rilzabrutinib vs. placebo LS Mean (95% CI): −0.04
  ISS7 Change from baseline LS Mean (SE): −5.90 (0.99)
  ISS7 Post-baseline Mean (SD): 10.97 (5.48)
400 mg QPM, Week 12
  ISS7 % Change difference for rilzabrutinib vs. placebo LS Mean (95% CI): 1.35%
  ISS7 % Change from baseline LS Mean (SE): −35.23 (6.55) %
  ISS7 Change difference for rilzabrutinib vs. placebo LS Mean (95% CI): 0.85
  ISS7 Change from baseline LS Mean (SE): −5.46 (1.03)
  ISS7 Post-baseline Mean (SD): 11.37 (5.51)
400 mg TID, Week 1
  ISS7 % Change difference for rilzabrutinib vs. placebo LS Mean (95% CI): −29.95%
  ISS7 % Change from baseline LS Mean (SE): −40.41 (5.24) %
  ISS7 Change difference for rilzabrutinib vs. placebo LS Mean (95% CI): −4.65
  ISS7 Change from baseline LS Mean (SE): −6.65 (0.76)
  ISS7 Post-baseline Mean (SD): 9.20 (5.60)
400 mg TID, Week 2
  ISS7 % Change difference for rilzabrutinib vs. placebo LS Mean (95% CI): −29.81%
  ISS7 % Change from baseline LS Mean (SE): −49.29 (5.21) %
  ISS7 Change difference for rilzabrutinib vs. placebo LS Mean (95% CI): −4.51
  ISS7 Change from baseline LS Mean (SE): −7.92 (0.79)
  ISS7 Post-baseline Mean (SD): 7.97 (5.99)
400 mg TID, Week 3
  ISS7 % Change difference for rilzabrutinib vs. placebo LS Mean (95% CI): −27.63%
  ISS7 % Change from baseline LS Mean (SE): −50.07 (5.21) %
  ISS7 Change difference for rilzabrutinib vs. placebo LS Mean (95% CI): −3.76
  ISS7 Change from baseline LS Mean (SE): −7.84 (0.83)
  ISS7 Post-baseline Mean (SD): 7.93 (5.46)
400 mg TID, Week 4
  ISS7 % Change difference for rilzabrutinib vs. placebo LS Mean (95% CI): −23.20%
  ISS7 % Change from baseline LS Mean (SE): −48.97 (5.57) %
  ISS7 Change difference for rilzabrutinib vs. placebo LS Mean (95% CI): −3.13
  ISS7 Change from baseline LS Mean (SE): −7.75 (0.88)
  ISS7 Post-baseline Mean (SD): 7.54 (5.21)
400 mg TID, Week 5
  ISS7 % Change difference for rilzabrutinib vs. placebo LS Mean (95% CI): −21.69%
  ISS7 % Change from baseline LS Mean (SE): −54.96 (5.32) %
  ISS7 Change difference for rilzabrutinib vs. placebo LS Mean (95% CI): −3.36
  ISS7 Change from baseline LS Mean (SE): −8.93 (0.86)
  ISS7 Post-baseline Mean (SD): 6.70 (5.91)
400 mg TID, Week 6
  ISS7 % Change difference for rilzabrutinib vs. placebo LS Mean (95% CI): −26.88%
  ISS7 % Change from baseline LS Mean (SE): −55.31 (5.83) %
  ISS7 Change difference for rilzabrutinib vs. placebo LS Mean (95% CI): −4.09
  ISS7 Change from baseline LS Mean (SE): −8.97 (0.93)
  ISS7 Post-baseline Mean (SD): 6.81 (6.20)
400 mg TID, Week 7
  ISS7 % Change difference for rilzabrutinib vs. placebo LS Mean (95% CI): −24.96%
  ISS7 % Change from baseline LS Mean (SE): −53.83 (5.69) %
  ISS7 Change difference for rilzabrutinib vs. placebo LS Mean (95% CI): −3.71
  ISS7 Change from baseline LS Mean (SE): −8.71 (0.91)
  ISS7 Post-baseline Mean (SD): 7.13 (5.42)
400 mg TID, Week 8
  ISS7 % Change difference for rilzabrutinib vs. placebo LS Mean (95% CI): −21.97%
  ISS7 % Change from baseline LS Mean (SE): −54.76 (5.95) %
  ISS7 Change difference for rilzabrutinib vs. placebo LS Mean (95% CI): −3.05
  ISS7 Change from baseline LS Mean (SE): −8.66 (0.95)
  ISS7 Post-baseline Mean (SD): 6.72 (5.76)
400 mg TID, Week 9
  ISS7 % Change difference for rilzabrutinib vs. placebo LS Mean (95% CI): −24.57%
  ISS7 % Change from baseline LS Mean (SE): −55.43 (6.01) %
  ISS7 Change difference for rilzabrutinib vs. placebo LS Mean (95% CI): −3.35
  ISS7 Change from baseline LS Mean (SE): −8.85 (0.95)
  ISS7 Post-baseline Mean (SD): 6.33 (5.52)
400 mg TID, Week 10
  ISS7 % Change difference for rilzabrutinib vs. placebo LS Mean (95% CI): −18.42%
  ISS7 % Change from baseline LS Mean (SE): −56.23 (6.14) %
  ISS7 Change difference for rilzabrutinib vs. placebo LS Mean (95% CI): −2.68
  ISS7 Change from baseline LS Mean (SE): −8.98 (0.99)
  ISS7 Post-baseline Mean (SD): 6.43 (5.48)
400 mg TID, Week 11
  ISS7 % Change difference for rilzabrutinib vs. placebo LS Mean (95% CI): −22.13%
  ISS7 % Change from baseline LS Mean (SE): −55.75 (6.15) %
  ISS7 Change difference for rilzabrutinib vs. placebo LS Mean (95% CI): −3.15
  ISS7 Change from baseline LS Mean (SE): −9.02 (0.96)
  ISS7 Post-baseline Mean (SD): 6.57 (5.76)
400 mg TID, Week 12
  ISS7 % Change difference for rilzabrutinib vs. placebo LS Mean (95% CI): −23.23%
  ISS7 % Change from baseline LS Mean (SE): −59.81 (6.28) %
  ISS7 Change difference for rilzabrutinib vs. placebo LS Mean (95% CI): −3.26
  ISS7 Change from baseline LS Mean (SE): −9.58 (1.01)
  ISS7 Post-baseline Mean (SD): 5.59 (5.58)
Week 1
  Imputed non-responder n (%) (ISS7 reduction of 5 points or more): 0 n (%)
  Non-responder n (%) (ISS7 reduction of 5 points or more): 18 (51.4) n (%)
  OR for rilzabrutinib vs. placebo (ISS7 reduction of 5 points or more): 3.240
  RRD (%) for rilzabrutinib vs. placebo (ISS7 reduction of 5 points or more): 25.3%
  Responder n (%) (ISS7 reduction of 5 points or more): 17 (48.6) n (%)
Week 2
  Imputed non-responder n (%) (ISS7 reduction of 5 points or more): 1 (2.9) n (%)
  Non-responder n (%) (ISS7 reduction of 5 points or more): 17 (48.6) n (%)
  OR for rilzabrutinib vs. placebo (ISS7 reduction of 5 points or more): 2.836
  RRD (%) for rilzabrutinib vs. placebo (ISS7 reduction of 5 points or more): 24.1%
  Responder n (%) (ISS7 reduction of 5 points or more): 18 (51.4) n (%)
